Laboratory results: US9096543B2, “Nuclear transport modulators and uses thereof” (Karyopharm Therapeutics Inc., priority 2012, dated 2015)
“Also recorded” adds a separate entry of the source.

Legend:
[1] = test system: skin wounds; experiment: Longitudinal full thickness skin incision wound model in mice; type: in vivo, C57BL/6J mice; details: Day 5 post-wounding; oral 4 or 7.5 mg/kg every other day, or topical 1 or 2.5 μM daily
Description: The effects of Compound 1 on skin wound healing were studied in a mouse longitudinal full thickness skin incision wound model. Upon arrival, animals were identified by ear tags, weighed and left to acclimate for several days before initiation of the experiment. On the day of wounding, mice were weighed and divided into 6 experimental groups with 6 animals per group, in accordance to weight differences stratified randomization. Prior to the surgical procedure, mice were anesthetized with isoflurane and the back of the animals was trimmed. Full thickness longitudinal incisions of 20 mm were performed using a standard scalpel blade on the backs of the animals (parallel to the backbone). Three hours after wounding, due to skin elasticity and activity of the animals, the incisions took on elliptical shapes. At this stage, the widest area of the wound was measured to establish a baseline wound width. Wound healing evaluation was made by measuring the widest area of the wound. Treatment groups consisted of oral gavage or topical groups. During the experiment, wounds were photo-documented and morphological analysis was performed. At the end of the experiment, 8 days post wounding, mice were sacrificed, wound widths were measured and biopsies of the wound area were collected and subjected to analysis.
Dosing solutions were prepared fresh on each day of dosing. […]

[2] = test system: BCCI injury to the medial frontal cortex; experiment: Morris Water Maze after bilateral controlled cortical impact (BCCI) injury in rats; type: in vivo, Sprague Dawley rats
Procedure: Bilateral controlled cortical impact (BCCI) injury to the medial frontal cortex (MFC) of male Sprague Dawley rats was induced by a cortical contusion device. After CCI any cortical surface hemorrhaging was controlled, and the fascia and scalp were sutured. Sham-operated rats were anesthetized, mounted in the stereotaxic apparatus, and a craniotomy was performed.
Compound 10.2, 0.4, and 0.6 mg/mL was suspended in vehicle (0.6% w/v Pluronic® F-68 and 0.6% w/v PVP K-29/32 in water) and administered p.o at a concentration of 10 mL/kg, 16 h before injury and 2 h after injury, and administrations were continued for 4 days. Control rats received equivalent injections of the vehicle for Compound 1, at the same time points.
The Morris Water Maze (MWM) test is a spatial navigation task that measures learning and memory in rodents using visual cues. Subjects learn over the course of days to find a hidden platform. A MWM test was conducted two weeks after injury. Male Sprague Dawley rats were allowed to swim in the pool until they reached the platform located in the southwest quadrant of a tank, or until 90 seconds had elapsed. Behavior was tracked by a video camera hanging from above the pool and recorded and analyzed using video track software (ANY-maze).

[3] = test system: COX-2; experiment: COX-2 protein expression in HeLa cells (immunoblot); type: cell-based; details: 1 μM Compound 1 + 20 ng/ml TNFα, 24 hours
Procedure: HeLa cells were plated in a 6-well culture dish (5×10^5 cells/well) with EMEM medium (Lonza) supplemented with 10% heat-inactivated fetal bovine serum (Invitrogen). Two of the wells of the plate were pre-treated with 1 μM of Compound 1 for 30 minutes, at which time one of the wells was exposed to 20 ng/ml TNFα (Preprotech) for 24 hours. The other wells were treated with either 20 ng/ml TNFα or nothing for 24 hours. Following the treatment, whole-cell lysates were generated from the cells by lysis with RIPA buffer supplemented with protease and phosphatase inhibitors (Roche). Immunoblot detection of COX-2 protein was performed using an anti-COX-2 antibody (Cayman). Signal intensity for the COX-2 protein was normalized to that of beta-actin (Santa Cruz) for each sample and plotted graphically as arbitrary intensity units.

[4] = test system: obese Zucker rats; experiment: Food intake and body weight in Zucker rats; type: in vivo
Procedure: Twenty-one (21) male Zucker rats aged 7 months were allocated into 3 groups of N=7 based on equivalent body weights and food intakes. An additional group of N=7 age matched Zucker lean controls were included as a control. Body weights and food and water intakes were measured at approximately the same time each day (14:30-15:30 h). On treatment days, dosing was at 14:30-15:30 h (approximately 2 hours before lights off).
The Zucker obese and lean controls were orally treated with vehicle (10 mL/kg dose volume; 0.5% Pluronic F68 and 0.5% PVP K29/32 in water) on each weekday. Both Compound 2 (1.5 mg/kg and 3 mg/kg) groups were orally treated on each weekday (10 mL/kg dose volume; 0.5% Pluronic F68 and 0.5% PVP K29/32 in water). Prior to the treatment phase, 4 days baseline data were collected. The treatment phase was for 16 days and a washout phase of 6 days was also included.

[5] = test system: collagen-induced arthritis; experiment: Collagen-Induced Arthritis (CIA) Study No. 2; type: in vivo, Lewis rats
Procedure: To further investigate the effect of the compounds described herein on inflammation biomarkers, a second CIA model was initiated. In this model, the groups were designated as group A (naïve), group B (model; vehicle-treated), group C (Compound 2 at 5 mg/kg QoD). The rats in groups B and C were immunized intradermally with bovine Type II collagen in IFA on day 0, and a booster injection was given on day 7. Compound 2 was orally administered to rats with CIA after the onset of arthritis (Day 11). CIA development was evaluated via macroscopic scoring and measurements of paw swelling. This was assessed every day for the first 5 days after sensitization (day 7), and then twice per week (Monday and Thursday) until Day 28 using the clinical scoring system described in Table 7 above. In addition, ELISAs for CD45, CRP, CCL2/MCP-1, RANKL, TNF-α, IL1-β, IL-6, IL-8, IL-15, IL-17, and measurements for cathepsin K and elastase were performed 4 days (Day 15 of the study) and 10 days (Day 21 of the study—peak for the disease) after compound treatment and at the very end of the study (Day 28) on all group animals. Additionally, on the last day of the study (Day 28), a few representative animals from each group were subjected to three-dimensional micro-tomodensitometry of calcaneus, and bone erosion was quantified.

SMILES | wound morphology assessment [1] | days after injury with significant effect on latency ([2]; 4 mg/kg p.o.) | latency to find the hidden platform (MWM acquisition) compared to vehicle-treated BCCI-injured rats ([2]; 2, 4 and 6 mg/kg p.o.) | COX-2 protein expression [3] | body weight gain versus Zucker vehicle group ([4]; 3 mg/kg oral) | daily food intake and body weight compared to Zucker control group ([4]; 1.5-3 mg/kg oral each weekday, 16 day treatment period) | joint swelling and clinical scores compared to vehicle-treated rats ([5]; 5 mg/kg QoD orally from Day 11) | bone erosion in the rear paws (micro CT, BMD) ([5]; 5 mg/kg QoD, Day 28)
CC(C)(C)C(=O)NNC(=O)/C=C\n1cnc(-c2cc(C(F)(F)F)cc(C(F)(F)F)c2)n1 [Compound 1, (Z)-3-(3-(3,5-bis(trifluoromethyl)phenyl)-1H-1,2,4-triazol-1-yl)-N′-pivaloylacrylohydrazide] | positive effect; also recorded: displayed efficacy, and had a positive impact on wound healing; also recorded: better wound healing, as measured by wound size reduction and better scabbing properties | 18 | dose dependent decrease in the latency to find the hidden platform | decreased the amount of COX-2 protein in the presence of TNFα; also recorded: does reduce the amount of TNFα induced expression of COX-2 protein; also recorded: inhibits TNFα-induced COX-2 protein expression | – | – | – | –
O=C(/C=C\n1cnc(-c2cc(C(F)(F)F)cc(C(F)(F)F)c2)n1)NNC(=O)CN1CCOCC1 [Compound 2, (Z)-3-(3-(3,5-bis(trifluoromethyl)phenyl)-1H-1,2,4-triazol-1-yl)-N′-(2-morpholinoacetyl)acrylohydrazide] | – | – | – | – | lower weight gain in comparison to the Zucker control group | dose-related decrease in daily food intake and body weight; also recorded: dose dependent decrease in daily food effect | significantly reduced joint swelling | significantly reduced bone erosion in the rear paws; also recorded: comparable to that of naïve animals
